According to patent US10344264B2, “Culturing of human embryonic stem cells at the air-liquid interface for differentiation into pancreatic endocrine cells” (Janssen Biotech, Inc., priority 2012, dated 2019):
Read-outs that look alike come from different tables or passages of the source.

Experiments:
[1] = system: cells of the human embryonic stem cell line H1
Text: At Stage 4 and subsequent cultures, mRNA was collected for PCR analysis of relevant pancreatic endoderm/endocrine genes. Total RNA was extracted with the RNeasy® Mini Kit (Qiagen; Valencia, Calif.) and reverse-transcribed using a High Capacity cDNA Reverse Transcription Kit (Applied Biosystems, Foster City, Calif.) according to manufacturers' instructions. cDNA was amplified using Taqman Universal Master Mix and Taqman Gene Expression Assays which were pre-loaded onto custom Taqman Arrays (Applied Biosystems).
Cells were then cultured for an additional day in MCDB-131 medium supplemented with 2% fatty acid-free BSA, 0.0012 g/ml sodium bicarbonate, 1× GlutaMax™, 4.5 mM D-Glucose, 100 ng/ml GDF8, and 0.1 μM MCX compound. […]

[2] = system: cells of the human embryonic stem cell line H1; conditions: air-liquid interface; mRNA at Stage 6 day 5 and day 8
Experimental: Cells of the human embryonic stem cell line H1 (passage 42) were seeded as single cells at 1×10^5 cells/cm^2 on […] ™ (1:30 dilution; BD Biosciences, NJ)-coated dishes in a media comprising of DMEM-F12 (Invitrogen, Ca), GlutaMax™ (1:100 dilution, Invitrogen), 0.25 mM ascorbic acid (Sigma, MO), 100 ng/ml of FGF2 (R & D systems, MN), 1 ng/ml of TGF-β (R & D systems), ITS-X (1:100 dilution), 2% fatty-acid free BSA (Lampire, PA), and 20 ng/ml of IGF-1 (R & D systems), supplemented with 10 μM of Y27632 (Rock inhibitor, Catalog No. Y0503, Sigma). Forty-eight hours post-seeding, cultures were washed in incomplete PBS (phosphate buffered saline without Mg or Ca). The cells were then differentiated according to the following protocol: • a) Stage 1 (3 days): Cells were cultured for one day in MCDB-131 medium (Invitrogen Catalog No. 10372-019) supplemented with 2% fatty acid-free BSA (Proliant Catalog No. 68700), 0.0012 g/ml sodium bicarbonate (Sigma-Aldrich Catalog No. S3187); 1× GlutaMax™ (Invitrogen Catalog No. 35050-079); 4.5 mM D-glucose (Sigma-Aldrich Catalog No. G8769); 100 ng/ml GDF8 (R&D Systems); and 1 μM MCX compound. Cells were then cultured for an additional day in MCDB-131 medium supplemented with 2% fatty acid-free BSA, 0.0012 g/ml sodium bicarbonate, 1× GlutaMax™, 4.5 mM D-glucose, 100 ng/ml GDF8, and 0.1 μM MCX compound. […]

[3] = system: cells of the human embryonic stem cell line H1; conditions: air-liquid interface, 1000 nM ALK5 inhibitor in Stages 5 and 6
Experimental: Cells of the human embryonic stem cell line H1 (passage 40) were seeded as single cells at 1×10^5 cells/cm^2 on […] ™ (1:30 dilution; BD Biosciences, NJ)-coated dishes in a media comprising DMEM-F12 (Invitrogen, Ca), GlutaMax™ (1:100 dilution, Invitrogen), 0.25 mM ascorbic acid (Sigma, MO), 100 ng/ml of FGF2 (R & D systems, MN), 1 ng/ml of TGF-β (R & D systems), ITS-X (1:100 dilution), 2% fatty-acid free BSA (Lampire, PA), and 20 ng/ml of IGF-1 (R & D systems), supplemented with 10 μM of Y27632 (Rock inhibitor, Catalog No. Y0503, Sigma-Aldrich). Forty-eight hours post-seeding, cultures were washed in incomplete PBS (phosphate buffered saline without Mg or Ca). The cells were then differentiated according to the following protocol: • a. Stage 1 (3 days): Cells were cultured for one day in MCDB-131 medium (Invitrogen Catalog No. 10372-019) supplemented with 2% fatty acid-free BSA (Proliant, Catalog No. 68700); 0.0012 g/ml sodium bicarbonate (Sigma-Aldrich, Catalog No. S3187); 1× GlutaMax™ (Invitrogen, Catalog No. 35050-079); 4.5 mM D-glucose (Sigma-Aldrich, Catalog No. G8769); 100 ng/ml GDF8 (R&D Systems); and 1 μM MCX compound. Cells were then cultured for an additional day in MCDB-131 medium supplemented with: 2% fatty acid-free BSA; 0.0012 g/ml sodium bicarbonate; 1× GlutaMax™; 4.5 mM D-Glucose; 100 ng/ml GDF8; and 0.1 μM MCX compound. […]

[4] = system: cells of the human embryonic stem cell line H1; remark: listed apart in the source
Experimental: Cells of the human embryonic stem cell line H1 (passage 40) were seeded as single cells at 1×10^5 cells/cm^2 on […] ™ (1:30 dilution; BD Biosciences, NJ)-coated dishes or Matrigel-coated filter inserts (Millipore PIHT 30R 48) in a media comprising of DMEM-F12 (Invitrogen, Ca), Glutamax (1:100 dilution, Invitrogen), 0.25 mM ascorbic acid (Sigma, MO), 100 ng/ml of FGF2 (R & D systems, MN), 1 ng/ml of TGF-B (R & D systems), ITS-X (1:100 dilution), 2% fatty-acid free BSA (Lampire, PA), and 20 ng/ml of IGF-1 (R & D systems), supplemented with 10 μM of Y27632 (Rock inhibitor, Catalog No. Y0503, SigmaAldrich, St. Louis, Mo.). Forty-eight hours post seeding, cultures were washed in incomplete PBS (phosphate buffered saline without Mg or Ca). The cells were then differentiated according to the following protocol: • a) Stage 1 (3 days): Cells were cultured for one day in MCDB-131 medium (Invitrogen Catalog No. 10372-019) supplemented with 2% fatty acid-free BSA (Proliant Catalog No. 68700), 0.0012 g/ml sodium bicarbonate (SigmaAldrich Catalog No. S3187), 1× GlutaMax™ (Invitrogen Catalog No. 35050-079), 4.5 mM D-Glucose (SigmaAldrich Catalog No. G8769), 100 ng/ml GDF8 (R&D Systems) and 1 μM MCX compound. Cells were then cultured for an additional day in MCDB-131 medium supplemented with 2% fatty acid-free BSA, 0.0012 g/ml sodium bicarbonate, 1× GlutaMax™, 4.5 mM D-Glucose, 100 ng/ml GDF8, and 0.1 μM MCX compound. […]

[5] = system: cells of the human embryonic stem cell line H1; test: Real-time PCR of Stage 6 cells at the air-liquid interface with gamma secretase inhibitor XX (Example 12); format: cell-based; conditions: 100 nM to 5000 nM at Stage 6; mRNA at Stage 6 day 4 and day 8
Experimental: This example highlights that NOTCH inhibitors, such as gamma secretase inhibitors, further enhance maturation markers of β cells while retaining expression of NKX6.1.
At Stage 6, various doses (100 nM to 5000 nM) of gamma Secretase inhibitor XX (EMD, #565789) were tested. mRNA was collected at Stage 6 day 4 and Stage 6 day 8. FIG. 21 depicts the PCR data for key β cell maturation markers along with pancreatic progenitor markers.

Compound	insulin expression at Stage 6 as compared to Stage 5 ([1]; cultures at the air-liquid interface)	insulin expression at Stage 6 as compared to Stage 5 ([1]; planar cultures treated at Stage 5 and Stage 6)	expression of MAFA on removal of the inhibitor at Stage 6 [2]	expression of glucagon [3]	expression of insulin [3]	co-expression of NKX6.1 and chromogranin-A (immunostaining) ([4]; Stage 6 cells at the air-liquid interface, 1 micro molar inhibitor)	number of NKX6.1 positive cells co-expressing insulin or chromogranin-A ([4]; filter inserts at the air-liquid interface)	number of NKX6.1 positive cells co-expressing insulin or chromogranin-A ([4]; same protocol on traditional monolayer cultures)	Amylin expression [5]	MAFA expression [5]	NKX6.1 expression [5]	PTF1a expression [5]	SOX9 expression [5]	insulin expression [5]
Cc1cccc(-c2[nH]ncc2-c2ccc3ncccc3n2)n1 [ALK5 inhibitor II]	enhancement	drop	dramatic drop	significantly enhanced	significantly enhanced	co-expression of NKX6.1 and chromogranin-A	significantly enhanced	failed to show significant numbers	–	–	–	–	–	–
C[C@H](NC(=O)Cc1cc(F)cc(F)c1)C(=O)N[C@@H]1C(=O)N(C)c2ccccc2-c2ccccc21 [gamma Secretase inhibitor XX]	–	–	–	–	–	–	–	–	significantly upregulated	significantly upregulated	not significantly affected	significantly down regulated	significantly down regulated	significantly upregulated
